Assay results as given in article PMC10747729, “Permeation Protection by Waterproofing Mucosal Membranes” (Pharmaceutics, 2023).

Tests used:
[1] = In vitro release/permeation assay through porcine skin, Franz diffusion cells; format: in vitro ADME; settings: infinite dose 300 µL of 1% solution; for Papp at 4 h, 1 %: pig, read-out: Permeability Coef. Kp (converted)
Experimental: (§1) The in vitro release test was conducted with artificial membrane (Whatman® Nuclepore™) and porcine sublingual mucosa as well as pig skin membrane as a reference. Biological membranes (mucosa and skin) were dermatomed at 500 ± 50 µm of thickness. Membranes were placed in vertical Franz diffusion cells and conditioned in a thermostatic bath at 43 °C to assure a membrane surface temperature of 32 ± 1 °C as in the previous TMWL study. The receptor solution used was the same PBS:EtOH (1:1) as before. Data on the TWML, temperature, and humidity of the membrane were obtained before initiating the test with the Tewameter TM300 (Courage-Khazaka, Cologne, Germany).
(§2) On the modified mucosas, a volume of 70 µL of each formulation was applied and after one hour an infinite dose (300 µL) of tested solution was applied. […] Receptor fluid was collected at different times (30 min, 1 h, 2 h, 4 h) and the same volume was immediately replaced with fresh fluid. The aliquots were appropriately diluted and filtered (0.45 µm, Cameo, Sigma-Aldrich, St. Louis, MO, USA) before their analysis with HPLC/DAD.
(§3) The release of the active substances was determined with the cumulative amount released (Qn, μg/cm^2), which represents the cumulative amount of the active substances quantified in the receptor fluid per area of the sample [34]. The equation is as follows (1):(1) Qn=Cn×Vc+∑i=1n−1(Ci×Vs)/A, where Qn is the cumulative amount of active substance released at time n (μg/cm^2); Cn is the concentration of active substance in the collected sample (μg/mL); Vc is the volume of the Franz diffusion cell (3 mL); ∑i=1n−1 Ci is the sum of the active substance concentrations (µg/mL) determined in sampling intervals 1 to n − 1; Vs is the volume of the collected sample; and A is the surface area of the applied membrane (1.86 cm^2).
(§4) The best absorption model to describe the release of active substances was obtained from the graphic representation of data release (values/time), as described by Mallandrich et al.. All data collected were processed over time to obtain the best fit equation for each membrane using the nonlinear regression software STATGRAPHICS® plus 5 (Statgraphics Technologies, Inc., The Plains, VA, USA). Selection of the best equation was made in accordance with the highest correlation coefficient corrected for the number of degrees of freedom (R^2). Following that analysis, the parameters of the flow (J, […]), the permeability coefficient (Kp, cm/h), the delay time (Tl, h), the maximum concentration (Cmax, µg/mL), the maximum time (tmax, h), and the area under the curve (AUC) were calculated for each membrane.
(§5) The software was OpenLab (version 2.2.0). […] Methanol (Merck, Darmstadt, Germany) was used as an extraction solvent for all active substances. All analytical procedures were validated following the guidelines developed by the International Conference on Harmonization (ICH). The calibration curve, limit of quantification (LoQ), and limit of detection (LoD) were obtained and are detailed in Table 5.

[2] = In vitro release/permeation assay through porcine sublingual mucosa, unmodified or modified with formulations, Franz diffusion cells; format: in vitro ADME; settings: for decrease in the permeability coefficient promoted by F16: mucosa modified with F16 vs unmodified mucosa; for permeability (in words): across skin, mucosa and modified mucosa; for Papp at 4 h, 1 %: pig, read-out: Permeability Coef. Kp (converted); for area under the curve, flux and permeability through unmodified mucosa compared to skin: unmodified mucosa vs porcine skin
Experimental: as §1, §2, §3, §4, §5

[3] = cited from earlier work
[4] = cited from earlier work; remark: listed apart in the source

Molecule	Flux. J [1]	Lag Time. TL [1]	Flux. J ([2]; MUCOSA F3)	Lag Time. TL ([2]; MUCOSA F3)	Flux. J ([2]; MUCOSA F6)	Lag Time. TL ([2]; MUCOSA F6)	Flux. J ([2]; MUCOSA F16)	Lag Time. TL ([2]; MUCOSA F16)	Flux. J ([2]; MUCOSA unmodified)	Lag Time. TL ([2]; MUCOSA unmodified)	decrease in the permeability coefficient promoted by F16 [2]	pKa [3]	Papp at 4 h, 1 % [1]	permeability (in words) [2]	Papp at 4 h, 1 % ([2]; MUCOSA F3)	Papp at 4 h, 1 % ([2]; MUCOSA F6)	Papp at 4 h, 1 % ([2]; MUCOSA F16)	Papp at 4 h, 1 % ([2]; MUCOSA unmodified)	area under the curve, flux and permeability through unmodified mucosa compared to skin [2]	LogP (pH7.4) [4]
C[C@@H]1C[C@H]2[C@@H]3CCC4=CC(=O)C=C[C@]4(C)[C@@]3(F)[C@@H](O)C[C@]2(C)[C@@]1(O)C(=O)CO [DEX, Dexamethasone]	5.84 ± 3.46 µg/cm^2/h	0.62 ± 0.16 h	330.43 ± 11.68 µg/cm^2/h	0.36 ± 0.04 h	289.38 ± 99.51 µg/cm^2/h	0.64 ± 0.36 h	68.26 ± 1.67 µg/cm^2/h	-0.11 ± 0.27 h	335.25 ± 61.25 µg/cm^2/h	0.31 ± 0.13 h	approximately 80%	12.1	–	–	–	–	–	–	–	–
CC(C)Cc1ccc(C(C)C(=O)O)cc1 (stereo not shown) [IBU, Ibuprofen]	24.79 ± 2.75 µg/cm^2/h	-0.24 ± 0.19 h	498.25 ± 49.45 µg/cm^2/h	0.23 ± 0.01 h	451.01 ± 98.04 µg/cm^2/h	0.35 ± 0.06 h	74.41 ± 0.16 µg/cm^2/h	0.15 ± 0.003 h	346.91± 5.87 µg/cm^2/h	0.17 ± 0.07 h	approximately 80%	–	0.569 ×10⁻⁶ cm/s	intermediate permeability	11.4 ×10⁻⁶ cm/s	10.4 ×10⁻⁶ cm/s	1.71 ×10⁻⁶ cm/s	7.96 ×10⁻⁶ cm/s	14 times higher	–
Ivermectin	3.13 ± 0.86 µg/cm^2/h	0.59 ± 0.28 h	87.23 ± 21.83 µg/cm^2/h	0.28 ± 0.02 h	144.86 ± 29.93 µg/cm^2/h	0.32 ± 0.10 h	41.70 ± 5.67 µg/cm^2/h	-0.09 ± 0.46 h	63.75 ± 1.57 µg/cm^2/h	0.24 ± 0.001 h	approximately 40%	12.47	–	–	–	–	–	–	–	5.83
Cn1c(=O)c2c(ncn2C)n(C)c1=O [CAF, Caffeine]	75.09 ± 51.32 µg/cm^2/h	0.65 ± 0.24 h	102.73 ± 30.73 µg/cm^2/h	0.10 ± 0.08 h	611.08 ± 85.12 µg/cm^2/h	0.28 ± 0.08 h	78.93 ± 11.05 µg/cm^2/h	-0.18 ± 0.03 h	428.40 ± 81.41 µg/cm^2/h	0.04 ± 0.34 h	approximately 80%	–	1.68 ×10⁻⁶ cm/s	high permeability	2.3 ×10⁻⁶ cm/s	13.7 ×10⁻⁶ cm/s	1.77 ×10⁻⁶ cm/s	9.6 ×10⁻⁶ cm/s	approximately four times higher	–
